Experimental data: patent US8349880B2, “Bicyclic compounds for the reduction of beta-amyloid production” (Bristol-Myers Squibb Company, priority 2009, dated 2013)

What follows are compounds tested on Aβ1-42 production (assay: Cellular assay for inhibition of Aβ1-42 production (H4 APP751 SWE clone 8.20)). Settings: 19 h, H4 APP751 SWE clone 8.20 cells, 19 h incubation; read-out: Activity Rating (Aβ42 cellular IC50, given as a number).
Assay type: cell-based
Experimental: Cellular assays for inhibition of Aβ1-40 and Aβ1-42 production
H4 cells stably transfected with APP751 containing the Swedish mutation (H4 APP751 SWE clone 8.20, developed at BMS) were maintained in log phase through twice weekly passage at a 1:20 split. For IC50 determinations, 30 μl cells (1.5×10^4 cells/well) in DMEM media containing 0.0125% BSA (Sigma A8412) were plated directly into 384-well compound plates (Costar 3709) containing 0.1 μl serially diluted compound in DMSO. Following incubation for 19 h in 5% CO2 at 37° C., plates were briefly centrifuged (1000 rpm, 5 min). A 10 μl aliquot from each well was transferred to a second assay plate (Costar 3709) for Aβ40 measurements. Antibody cocktails were freshly prepared by dilution into 40 mM Tris-HCl (pH 7.4) with 0.2% BSA and added to assay plates. For Aβ42 measurements, antibodies specific for the Aβ42 neoepitope (565, developed at BMS; conjugated to the Wallac reagent (Perkin Elmer)) and the N-terminal sequence of Aβ peptide (26D6, developed at SIBIA; conjugated to APC (Perkin Elmer)) were mixed and 20 μl of the mixture was added to each well of the incubated cell plate yielding a final concentration of 0.8 ng/well 565 and 75 ng/well 26D6. For the Aβ40 measurements, antibodies specific for the Aβ40 neoepitope (TSD, developed at BMS; conjugated to the Wallac reagent (Perkin Elmer)) and 26D6 as described above were mixed and 20 μl of the mixture was added to the 10 μl aliquots which had been removed previously from the cell plate yielding a final concentration of 1.6 ng/well TSD and 17.5 ng/well 26D6. Assay plates containing antibodies were sealed with aluminum foil and incubated overnight at 4° C. Signal was determined using a Viewlux counter (Perkin Elmer) and IC50 values determined using curve fitting in CurveMaster (Excel Fit based).

**Q.** With `C=C1CCn2nc(Nc3ccc(-n4cnc(Cl)c4)c(OC)c3)nc2[C@H](c2ccc(F)cc2)C1` (single isomer, unassigned) [Example 134] as the compound, how does the IC50 read?
**A.** 3 nM

**Q.** Which IC50 does the source give for `COc1cc(Nc2nc3n(n2)CCCCC3(O)c2ccc(F)cc2)ccc1-n1cnc(Cl)c1` (centres unmarked) [Example 92, 2-(4-(4-chloro-1H-imidazol-1-yl)-3-methoxyphenylamino)-9-(4-fluorophenyl)-6,7,8,9-tetrahydro-5H-[1,2,4]triazolo[1,5-a]azepin-9-ol] here?
**A.** 11 nM

**Q.** With `COc1cc(Nc2nc3n(n2)CCCC3c2ccc(Cl)cc2Cl)ccc1-n1cnc(Cl)c1` (centres unmarked) [Example 12, N-(4-(4-chloro-1H-imidazol-1-yl)-3-methoxyphenyl)-8-(2,4-dichlorophenyl)-5,6,7,8-tetrahydro-[1,2,4]triazolo[1,5-a]pyridin-2-amine] as the compound, how does the IC50 read?
**A.** 8 nM

**Q.** For `COc1cc(Nc2nc3c(s2)CCCC3c2ccccc2)ccc1-n1cnc(C)n1` (centres unmarked) [Example 67, N-(3-methoxy-4-(3-methyl-1H-1,2,4-triazol-1-yl)phenyl)-4-phenyl-4,5,6,7-tetrahydrobenzo[d]thiazol-2-amine], which IC50 is on record?
**A.** 19 nM

Same assay, conditions: 19 h, H4 APP751 SWE clone 8.20 cells, 19 h incubation; read-out: Activity Rating (based on Aβ42 cellular IC50 values)

**Q.** How did the IC50 turn out when `COc1cc(Nc2nc3n(n2)CCCCC3c2ccc(F)cc2)ccc1-c1nc(C)no1` (centres unmarked) [Example 60, 9-(4-fluorophenyl)-N-(3-methoxy-4-(3-methyl-1,2,4-oxadiazol-5-yl)phenyl)-6,7,8,9-tetrahydro-5H-[1,2,4]triazolo[1,5-a]azepin-2-amine] was run?
**A.** 100 to 1000 nM

**Q.** With `COc1cc(Nc2nc3n(n2)CCCCC3c2ccc(OC(F)(F)F)c(F)c2)ccc1-n1cnc(C)n1` (centres unmarked) [Example 128, 9-(3-fluoro-4-(trifluoromethoxy)phenyl)-N-(3-methoxy-4-(3-methyl-1H-1,2,4-triazol-1-yl)phenyl)-6,7,8,9-tetrahydro-5H-[1,2,4]triazolo[1,5-a]azepin-2-amine 2,2,2-trifluoroacetate] as the compound, how does the IC50 read?
**A.** 10 to 100 nM

**Q.** With `COc1cc(Nc2nc3n(n2)CCCCC3c2ccc(F)cc2)c(F)cc1-n1cnc(C)n1` (centres unmarked) [Example 28, N-(2-fluoro-5-methoxy-4-(3-methyl-1H-1,2,4-triazol-1-yl)phenyl)-9-(4-fluorophenyl)-6,7,8,9-tetrahydro-5H-[1,2,4]triazolo[1,5-a]azepin-2-amine 2,2,2-trifluoroacetate] as the compound, how does the IC50 read?
**A.** 10 to 100 nM

**Q.** How did the IC50 turn out when `COc1cc(Nc2nc3n(n2)CCCC[C@@H]3c2ccc(F)c(F)c2)ccc1-n1cnc(Cl)c1` (single isomer, unassigned) [Example 24] was run?
**A.** < 10 nM

**Q.** With `COc1cc(Nc2nc3n(n2)CCCC[C@H]3c2ccc(OC(F)(F)F)cc2)c(F)cc1-n1cnc(C)n1` (single isomer, unassigned) [Example 176] as the compound, how does the IC50 read?
**A.** < 10 nM

**Q.** Which IC50 does the source give for `COc1cc(Nc2nc3n(n2)CCCC[C@@H]3c2ccc(F)cc2F)ccc1-n1cnc(Cl)c1` (single isomer, unassigned) [Example 37] here?
**A.** < 10 nM

**Q.** `COc1cc(Nc2nc3c(s2)CCCC3(NCc2ccc(Cl)cc2)c2ccccc2)ccc1-n1cnc(Cl)c1` (centres unmarked) [Example 83, N2-(4-(4-chloro-1H-imidazol-1-yl)-3-methoxyphenyl)-N4-(4-chlorobenzyl)-4-phenyl-4,5,6,7-tetrahydrobenzo[d]thiazole-2,4-diamine] was tested. Which IC50 did it give?
**A.** 100 to 1000 nM

**Q.** Which IC50 does the source give for `COc1cc(Nc2nc3n(n2)CCCC[C@@H]3c2ccc(F)cc2)ccc1-n1cnc(Cl)n1` (single isomer, unassigned) [Example 88] here?
**A.** 10 to 100 nM

**Q.** `C=C1CCn2nc(Nc3ccc(-n4cnc(Cl)c4)c(OC)c3)nc2[C@@H](c2ccc(F)cc2)C1` (single isomer, unassigned) [Example 135] was tested. Which IC50 did it give?
**A.** 10 to 100 nM

**Q.** Which IC50 does the source give for `Cc1ncnn1-c1ccc(Nc2nc3n(n2)CCC[C@@H]3c2ccc(F)cc2)cc1F` (single isomer, unassigned) [Example 15] here?
**A.** 100 to 1000 nM

**Q.** Which IC50 does the source give for `COc1cc(Nc2nc3n(n2)CCCCC3c2ccc(F)cc2)ccc1-c1cnnc(C)c1` (centres unmarked) [Example 47, 9-(4-fluorophenyl)-N-(3-methoxy-4-(6-methylpyridazin-4-yl)phenyl)-6,7,8,9-tetrahydro-5H-[1,2,4]triazolo[1,5-a]azepin-2-amine] here?
**A.** 10 to 100 nM

**Q.** Which IC50 does the source give for `COc1cc(Nc2nc3c(s2)CCCC3(O)c2ccccc2)ccc1-n1cnc(C)n1` (centres unmarked) [Example 81, 2-(3-methoxy-4-(3-methyl-1H-1,2,4-triazol-1-yl)phenylamino)-4-phenyl-4,5,6,7-tetrahydrobenzo[d]thiazol-4-ol] here?
**A.** 10 to 100 nM

**Q.** Which IC50 does the source give for `Cc1ncnn1-c1ccc(Nc2nc3n(n2)CCCC[C@H]3c2ccc(F)cc2)cc1F` (single isomer, unassigned) [Example 94] here?
**A.** 10 to 100 nM

**Q.** How did the IC50 turn out when `COc1cc(Nc2nc3n(n2)C[C@H](O)CC[C@H]3c2ccc(F)cc2)ccc1-n1cnc(Cl)c1` (relative stereo) [Example 62, rel-(6R,9S)-2-(4-(4-chloro-1H-imidazol-1-yl)-3-methoxyphenylamino)-9-(4-fluorophenyl)-6,7,8,9-tetrahydro-5H-[1,2,4]triazolo[1,5-a]azepin-6-ol 2,2,2-trifluoroacetate] was run?
**A.** < 10 nM

**Q.** How did the IC50 turn out when `COc1cc(Nc2nc3n(n2)CCCC[C@H]3c2ccccc2F)ccc1-n1cnc(Cl)c1` (single isomer, unassigned) [Example 58] was run?
**A.** < 10 nM

**Q.** How did the IC50 turn out when `COc1cc(Nc2nc3n(n2)CCCCC3c2ccc(F)cc2)ccc1-n1cnc(C)n1` (centres unmarked) [Example 7, 9-(4-fluorophenyl)-N-(3-methoxy-4-(3-methyl-1H-1,2,4-triazol-1-yl)phenyl)-6,7,8,9-tetrahydro-5H-[1,2,4]triazolo[1,5-a]azepin-2-amine 2,2,2-trifluoroacetate] was run?
**A.** 10 to 100 nM

**Q.** `COc1cc(Nc2nc3n(n2)C[C@H](O)CC[C@@H]3c2ccc(F)cc2)ccc1-n1cnc(Cl)c1` (relative stereo) [Example 65, rel-(6R,9R)-2-(4-(4-chloro-1H-imidazol-1-yl)-3-methoxyphenylamino)-9-(4-fluorophenyl)-6,7,8,9-tetrahydro-5H-[1,2,4]triazolo[1,5-a]azepin-6-ol 2,2,2-trifluoroacetate] was tested. Which IC50 did it give?
**A.** < 10 nM

**Q.** Which IC50 does the source give for `COc1cc(Nc2nc3n(n2)CCCCC3c2cc(F)c(F)c(F)c2)ccc1-n1cnc(Cl)c1` (centres unmarked) [Example 50, N-(4-(4-chloro-1H-imidazol-1-yl)-3-methoxyphenyl)-9-(3,4,5-trifluorophenyl)-6,7,8,9-tetrahydro-5H-[1,2,4]triazolo[1,5-a]azepin-2-amine] here?
**A.** < 10 nM

**Q.** For `COc1cc(Nc2nc3n(n2)CCCCC3c2ccc(F)c(F)c2)ccc1-n1cnc(Cl)c1` (centres unmarked) [Example 22, N-(4-(4-chloro-1H-imidazol-1-yl)-3-methoxyphenyl)-9-(3,4-difluorophenyl)-6,7,8,9-tetrahydro-5H-[1,2,4]triazolo[1,5-a]azepin-2-amine 2,2,2-trifluoroacetate], which IC50 is on record?
**A.** < 10 nM

**Q.** With `COc1cc(Nc2nc3n(n2)CCCCC3c2ccc(Cl)cc2)ccc1-n1cnc(Cl)c1` (centres unmarked) [Example 32, N-(4-(4-chloro-1H-imidazol-1-yl)-3-methoxyphenyl)-9-(4-chlorophenyl)-6,7,8,9-tetrahydro-5H-[1,2,4]triazolo[1,5-a]azepin-2-amine 2,2,2-trifluoroacetate] as the compound, how does the IC50 read?
**A.** < 10 nM

**Q.** For `COc1cc(Nc2nc3n(n2)CCCC[C@@H]3c2ccc(F)cc2)ccc1-n1cnc(Cl)c1` (single isomer, unassigned) [Example 18], which IC50 is on record?
**A.** 10 to 100 nM

Same assay, conditions: H4 APP751 SWE clone 8.20 cells, 19 h incubation; read-out: Activity Rating (based on Aβ42 cellular IC50 values)

**Q.** “(S)—N-(2-fluoro-5-methoxy-4-(3-methyl-1H-1,2,4-triazol-1-yl)phenyl)-9-(4-(2,2,2-trifluoroethoxy)phenyl)-6,7,8,9-tetrahydro-5H-[1,2,4]triazolo azepin-2-amine [Example 117]” was tested. Which IC50 did it give?
**A.** 10 to 100 nM
